According to patent US5861400A, “Pharmaceutical compounds” (Xenova Limited, priority 1994, dated 1999):

Experiments:
[1] = Kamei et al, J. Antibiotics vol XLIII No. 8, 1018-1020; cited from earlier work
[2] = system: AR 1.0 cells; experiment: Potentiation of Doxorubicin toxicity (potentiation index, AR 1.0 cells); format: cell-based, mouse; conditions: Conc Comp 5 μM; doxorubicin 0.5 nM-50 μM, four days
Protocol: (§1) The EMT6 mouse mammary carcinoma cell line and the MDR resistant subline AR 1.0 were cultured in RPMI 1640 medium containing 10% foetal calf serum and 2mM glutamine at 37° C. in 5% CO2. Cells were passaged between 1 in 200 and 1 in 2000 in the case of the parental cell line and between 1 in 20 and 1 in 200 in the case of the MDR resistant subline, after trypsinisation (0.25% trypsin, 0.2 gl^-1, EDTA).
2. Potentiation of Doxorubicin toxicity
Compounds of formula A were examined for their ability to potentiate the toxicity of doxorubicin in AR 1.0 cells. In initial proliferation assays compounds were titrated against a fixed concentration of doxorubicin (0.5-1 μM) which alone is non-toxic to AR 1.0 cells. Incubations with doxorubicin were over a four day period before quantitation of proliferation using the calorimetric sulphorhodamine B assay (Skehan et al; J. Natl. Cancer Inst. 82 pp 1107-1112 (1990)).
Cells were cultured for four days with concentrations of doxorubicin over the range of 0.5 nM-50 μM in the presence of Verapramil at its maximum subtoxic level determined from previous experiments. Proliferation was quantified as described by Skehan et al, loc cit. The IC50 (concentration required to reduce proliferation to 50% of the untreated controls) for doxorubicin alone and with the Verapamil were derived and used to calculate the potentiation index (PI): […]

[3] = system: AR 1.0 cells; experiment: Drug accumulation assay (tritiated daunorubicin, AR 1.0 cells); format: cell-based, mouse; conditions: Mus musculus, 1 h, daunorubicin accumulation, 37° C., DNR 2 μM
Protocol: as §1
1. Drug accumulation assay
AR 1.0 cells were seeded into 96 well opaque culture plates (Canberra Packard). The assay medium contained a mixture of tritiated Daunorubicin (DNR), a cytotoxic agent, and unlabelled DNR (0.25μ Ci/ml; 2 μM). Compounds of formula A were serially diluted in assay medium over a range of concentrations from 100 nM to 100 μM. The cells were incubated at 37° C. for 1 hr before washing and counting of cell associated radioactivity. Each assay included a titration of the known resistance modifying agent Verapamil as positive control. Results were expressed as % maximum accumulation where 100% accumulation is that observed in the presence of 100 μM Verapamil.

[4] = system: AR 1.0 cells; experiment: Proliferation/toxicity assay, compound alone and with cytotoxic agent (sulphorhodamine B); format: cell-based, mouse
[5] = system: MDR cells; conditions: in vitro and in vivo; Cancer Res., 41, 1967-1972 (1981); cited from earlier work
[6] = Mus musculus, compound alone, read-out: COMPOUND TOXICITY (IC50 μM)
[7] = cytotoxic agent (doxorubicin) 0.50 μg/ml, 5760 min, read-out: TOXICITY WITH CYTOTOXIC AGENT (IC 50 μM)

| SMILES | potentiation of the cytotoxicity of vincristine [1] | Potentiation Index (at 5 μM) [2] | IC50 [3] | IC50 [4, 6] | IC50 [4, 7] | sensitisation of MDR cells to vinca alkaloids [5] |
| --- | --- | --- | --- | --- | --- | --- |
| O=c1[nH]/c(=C\c2ccccc2)c(=O)[nH]/c1=C\c1ccccc1 [B] | have utility as potentiators of the cytotoxicity of vincristine | – | – | – | – | – |
| Cn1c(=O)/c(=C/C2CCCCC2)n(C)c(=O)/c1=C/c1ccccc1 [Compound 1871, (3Z,6Z)-3-Benzylidene-6-cyclohexylmethylene-1,4-dimethyl-2,5-piperazinedione] | – | 20 | 6 µM | 40 µM | 1 µM | – |
| Cn1c(=O)/c(=C/c2cn(CN3C(=O)c4ccccc4C3=O)c3ccccc23)n(C)c(=O)/c1=C/c1ccccc1 [Compound 1897] | – | 75 | 3 µM | 50 µM | 1.5 µM | – |
| Cn1c(=O)/c(=C/c2cn(C(=O)OCc3ccccc3)c3ccccc23)n(C)c(=O)/c1=C/c1ccccc1 [Compound 1940, (3Z,6Z)-3-Benzylidene-6-(1-benzyloxycarbonyl-3-indolyl)methylene-1,4-dimethyl-2,5-piperazinedione] | – | 14 | 10 µM | 7 µM | – | – |
| Cn1c(=O)/c(=C/c2cn(CCCN3C(=O)c4ccccc4C3=O)c3ccccc23)n(C)c(=O)/c1=C/c1ccccc1 [Compound 1943, (3Z,6Z)-3-Benzylidene-1,4-dimethyl-6-(3-(1-(3-phthalimido)propyl)indolyl)methylene-2,5-piperazinedione] | – | 20 | 10 µM | 60 µM | 0.2 µM | – |
| COc1ccc(CCN(C)CCCC(C#N)(c2ccc(OC)c(OC)c2)C(C)C)cc1OC (centres unmarked) [Verapamil] | – | – | – | – | – | shown to sensitise MDR cells to vinca alkaloids in vitro and in vivo |
